According to ChEMBL document CHEMBL1201862, “PubChem BioAssay data set” (2004):
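Step 1: Grow cells in 96-well plates. Step 2: Expose to compound for 48 hours at 5 concentrations. Step 3: Interpolate endpoints linearly; if unreached, use highest concentration. Here, GI50 denotes the concentration required for 50% inhibition of growth.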 Calls of active or inactive are those of the source. Cut-off read from the data, not from the text of the source: active = GI50 up to about 1.1 µM and inactive = higher.

Tests used:
Test in all cases: NCI tumour cell line growth inhibition, 48 h
SNB-19 = system: SNB-19
HCT-116 = system: HCT-116
SW-620 = system: SW-620
SK-MEL-5 = system: SK-MEL-5
MOLT-4 = system: MOLT-4
K562 = system: K562
ACHN = system: ACHN
SK-OV-3 = system: SK-OV-3
COLO 205 = system: COLO 205
SNB-75 = system: SNB-75
UACC-62 = system: UACC-62
U-251 = system: U-251
SN12C = system: SN12C
HOP-92 = system: HOP-92
OVCAR-5 = system: OVCAR-5
SK-MEL-2 = system: SK-MEL-2
OVCAR-8 = system: OVCAR-8
A498 = system: A498
Malme-3M = system: Malme-3M
RXF 393 = system: RXF 393

| SMILES | GI50 (SNB-19) | GI50 (HCT-116) | GI50 (SW-620) | GI50 (SK-MEL-5) | GI50 (MOLT-4) | GI50 (K562) | GI50 (ACHN) | GI50 (SK-OV-3) | GI50 (COLO 205) | GI50 (SNB-75) | GI50 (UACC-62) | GI50 (U-251) | GI50 (SN12C) | GI50 (HOP-92) | GI50 (OVCAR-5) | GI50 (SK-MEL-2) | GI50 (OVCAR-8) | GI50 (A498) | GI50 (Malme-3M) | GI50 (RXF 393) |
| --- | --- | --- | --- | --- | --- | --- | --- | --- | --- | --- | --- | --- | --- | --- | --- | --- | --- | --- | --- | --- |
| O=c1c2ccccc2nc2[nH][nH]c(=S)n12 | > 100 µM (inactive) | > 100 µM (inactive) | > 100 µM (inactive) | > 100 µM (inactive) | 58.6 µM (inactive) | > 100 µM (inactive) | > 100 µM (inactive) | > 100 µM (inactive) | > 100 µM (inactive) | 48.4 µM (inactive) | > 100 µM (inactive) | > 100 µM (inactive) | > 100 µM (inactive) | > 100 µM (inactive) | > 100 µM (inactive) | > 100 µM (inactive) | > 100 µM (inactive) | > 100 µM (inactive) |  |  |
| CCN(CC)C(=S)N/N=C(\C)c1ccccc1O | 20.8 µM (inactive) |  | 22.9 µM (inactive) | 10.7 µM (inactive) | 8.59 µM (inactive) | 0.0568 µM (active) | 14.5 µM (inactive) | 33.7 µM (inactive) | 40.9 µM (inactive) | 44.2 µM (inactive) | 10.9 µM (inactive) | 16.9 µM (inactive) | 20.9 µM (inactive) |  |  | 19 µM (inactive) | 19.5 µM (inactive) | 20.5 µM (inactive) | 26.4 µM (inactive) | 25.6 µM (inactive) |
| N#CC1=CNc2sccc2S1(=O)=O | > 100 µM (inactive) | 89.7 µM (inactive) | > 100 µM (inactive) | 76.4 µM (inactive) | 39.6 µM (inactive) |  | > 100 µM (inactive) | > 100 µM (inactive) | > 100 µM (inactive) | > 100 µM (inactive) | > 100 µM (inactive) | > 100 µM (inactive) | > 100 µM (inactive) | > 100 µM (inactive) | > 100 µM (inactive) | > 100 µM (inactive) | > 100 µM (inactive) | > 100 µM (inactive) | > 100 µM (inactive) |  |
| CSc1nc(Cl)c2c(n1)Sc1nc3cc4c(cc3n1C2O)OCO4 (centres undefined) | 1.57 µM (inactive) | 0.0863 µM (active) | 0.33 µM (active) | 0.526 µM (active) |  | 0.29 µM (active) | 0.946 µM (active) | 1.72 µM (inactive) | 0.247 µM (active) | 3.75 µM (inactive) | 0.43 µM (active) | 0.791 µM (active) | 0.578 µM (active) |  | 0.92 µM (active) | 0.726 µM (active) | 0.575 µM (active) | 3.44 µM (inactive) | 0.516 µM (active) | 1.96 µM (inactive) |
| Cc1nc2sc3ccccc3n2c(=O)c1/N=N/c1ccc(Cl)cc1 | > 100 µM (inactive) | > 100 µM (inactive) | > 100 µM (inactive) | > 100 µM (inactive) | > 100 µM (inactive) | > 100 µM (inactive) | > 100 µM (inactive) | > 100 µM (inactive) | > 100 µM (inactive) | > 100 µM (inactive) | > 100 µM (inactive) | > 100 µM (inactive) | > 100 µM (inactive) | > 100 µM (inactive) | > 100 µM (inactive) | > 100 µM (inactive) | > 100 µM (inactive) |  | > 100 µM (inactive) | > 100 µM (inactive) |
| CC1CN=C(Nc2ccc(S(N)(=O)=O)cc2)S1 (centres undefined) | > 100 µM (inactive) | > 100 µM (inactive) | > 100 µM (inactive) | > 100 µM (inactive) | > 100 µM (inactive) | > 100 µM (inactive) | > 100 µM (inactive) | > 100 µM (inactive) | > 100 µM (inactive) | > 100 µM (inactive) |  | > 100 µM (inactive) | > 100 µM (inactive) | > 100 µM (inactive) | > 100 µM (inactive) | > 100 µM (inactive) | > 100 µM (inactive) | > 100 µM (inactive) | > 100 µM (inactive) |  |
| COC(=O)C1CCC(=O)N1C(c1ccccc1)c1ccc(OC)c(OC)c1 (centres undefined) | > 100 µM (inactive) | > 100 µM (inactive) | > 100 µM (inactive) | > 100 µM (inactive) | > 10 µM (inactive) | > 100 µM (inactive) | > 100 µM (inactive) | > 100 µM (inactive) | > 100 µM (inactive) | 15.7 µM (inactive) | > 100 µM (inactive) | > 100 µM (inactive) | > 100 µM (inactive) | > 100 µM (inactive) | > 100 µM (inactive) | > 100 µM (inactive) | > 100 µM (inactive) | > 100 µM (inactive) | > 100 µM (inactive) |  |
| Cc1cc2[nH]c3c(C#N)c(-c4ccccc4)c(CN4CCOCC4)c(=O)n3c2cc1C | > 100 µM (inactive) | > 100 µM (inactive) | > 100 µM (inactive) |  |  |  | > 100 µM (inactive) | > 100 µM (inactive) | > 100 µM (inactive) | 40.7 µM (inactive) |  | > 100 µM (inactive) | > 100 µM (inactive) |  | > 100 µM (inactive) | > 100 µM (inactive) | > 100 µM (inactive) | > 100 µM (inactive) | > 100 µM (inactive) | > 100 µM (inactive) |
| Cc1ccc(N(C(=O)Nc2ccc(F)c(Cl)c2)C2=NCC(C)S2)cc1 (centres undefined) | > 100 µM (inactive) | 38.6 µM (inactive) | 74 µM (inactive) | 18.7 µM (inactive) | 31.6 µM (inactive) | 43.9 µM (inactive) | 50.2 µM (inactive) | > 100 µM (inactive) | 72.4 µM (inactive) | 17.9 µM (inactive) |  | 50.6 µM (inactive) | 67 µM (inactive) |  | > 100 µM (inactive) | 61.5 µM (inactive) | 48.2 µM (inactive) | 34.3 µM (inactive) | 77.3 µM (inactive) |  |
| c1ccc(C2=NN(c3ccccc3)C3(S2)SC(c2ccccc2)(c2ccccc2)c2ccccc23)cc1 (centres undefined) | > 100 µM (inactive) | > 100 µM (inactive) | > 100 µM (inactive) | > 100 µM (inactive) | > 100 µM (inactive) | > 100 µM (inactive) | > 100 µM (inactive) | > 100 µM (inactive) | > 100 µM (inactive) | > 100 µM (inactive) | > 100 µM (inactive) | > 100 µM (inactive) | > 100 µM (inactive) | > 100 µM (inactive) | > 100 µM (inactive) | > 100 µM (inactive) | > 100 µM (inactive) | > 100 µM (inactive) | > 100 µM (inactive) |  |
| COC(=O)/C=C/[C@H]1[C@H](C)N1S(=O)(=O)c1ccc(C)cc1 (some centres undefined) | > 100 µM (inactive) | 41.8 µM (inactive) | 80.4 µM (inactive) | > 100 µM (inactive) | 70.5 µM (inactive) | > 100 µM (inactive) | 89.7 µM (inactive) | > 100 µM (inactive) | > 100 µM (inactive) |  | > 100 µM (inactive) | > 100 µM (inactive) | > 100 µM (inactive) |  | > 100 µM (inactive) | 68.7 µM (inactive) | > 100 µM (inactive) | > 100 µM (inactive) | 50.2 µM (inactive) | > 100 µM (inactive) |
| Cc1csc(-n2nc(C)cc2C)n1 | > 100 µM (inactive) | > 100 µM (inactive) | > 100 µM (inactive) | > 100 µM (inactive) | 2.38 µM (inactive) | > 100 µM (inactive) | > 100 µM (inactive) | > 100 µM (inactive) | > 100 µM (inactive) | > 100 µM (inactive) | > 100 µM (inactive) | > 100 µM (inactive) | > 100 µM (inactive) |  | > 100 µM (inactive) | > 100 µM (inactive) | > 100 µM (inactive) | > 100 µM (inactive) | > 100 µM (inactive) | > 100 µM (inactive) |
| CC(C)(CN1CCCCC1)C(/C=C/c1ccccc1)=N\NC(=O)N/N=C(/C=C/c1ccccc1)C(C)(C)CN1CCCCC1 | 1.91 µM (inactive) | 1.58 µM (inactive) | 1.7 µM (inactive) | 1.72 µM (inactive) | 1.67 µM (inactive) | 1.19 µM (inactive) | 3.32 µM (inactive) | 3.32 µM (inactive) | 1.44 µM (inactive) | 1.38 µM (inactive) | 1.54 µM (inactive) | 1.63 µM (inactive) | 1.89 µM (inactive) | 1.75 µM (inactive) | 4.29 µM (inactive) | 2.01 µM (inactive) | 1.78 µM (inactive) | 1.5 µM (inactive) | 2.04 µM (inactive) |  |
| COc1ccc2c(c1)CC1=C(O2)c2ccc(OC)cc2OC1 |  | 18.3 µM (inactive) | 16.6 µM (inactive) | 18.2 µM (inactive) | 33.4 µM (inactive) | 44.8 µM (inactive) | 18.2 µM (inactive) | 90.4 µM (inactive) | 18.3 µM (inactive) | 25 µM (inactive) | 17.7 µM (inactive) | 17.5 µM (inactive) | 20.5 µM (inactive) |  | 49.4 µM (inactive) | 31.3 µM (inactive) | 29.9 µM (inactive) | > 100 µM (inactive) | 22.5 µM (inactive) |  |
| Cc1cccc2c1[C@]13OC(C)[C@]4(C)CC5OC(=O)[C@@]1(C)[C@@H]5[C@]34C(=O)O2 (some centres undefined) | > 100 µM (inactive) | > 100 µM (inactive) | > 100 µM (inactive) | > 100 µM (inactive) | > 100 µM (inactive) | > 100 µM (inactive) | > 100 µM (inactive) | > 100 µM (inactive) | > 100 µM (inactive) | > 100 µM (inactive) | > 100 µM (inactive) | > 100 µM (inactive) | > 100 µM (inactive) |  | > 100 µM (inactive) | > 100 µM (inactive) | > 100 µM (inactive) | > 100 µM (inactive) | > 100 µM (inactive) |  |
